# Entries after “also recorded” stand apart in the source; their conditions may differ.
# What was measured:
# CB2 = test: Western blot of CB2 levels in MCF7 cells after drug treatment; format: cell-based; conditions: two days; for levels of CB2 relative to controls: LDN 10 nM, 6BN 1 μM or 10 μM, Western blot densitometry normalised to GAPDH, vs no-drug controls
# Experimental: Levels of Bcl2-associated death promoter (BAD), p21 protein, the opioid receptors kappa 1 (OPRK1) and mu 1 (OPRM1), and the cannabinoid receptors CBR1 (CB1) and CBR2 (CB2) are visualised by Western blot (left) against GAPDH as a loading control, and quantified via density analysis relative to GAPDH (right).
# One illustrative and non-limiting experiment was carried out on cultures of MCF7 cells. In brief, either LDN at 10 nM or 6BN at 1 μM or 10 μM was administered in vitro to a culture for two days, after which the expression levels of BAD, p21, opioid receptors kappa and mu, CB1, CB2, and GAPDH (as a loading control) were analysed via Western blot and subsequent quantification via density measurement of the bands.
# In full, MCF7 cells were seeded into 6-well plates at a density of 1×10^5/well and left to adhere over-night. Naltrexone (10 nM) or 6-β-naltrexol (1 μM or 10 μM) were added to the cells before harvesting cells for western blot analysis. Primary probing was performed with specific antibodies generated against BAD, p21, OPRK1, […], CBR-1 and CBR-2. […] Anti-GAPDH was used as a loading control. All antibodies were used at a dilution of 1:1000, followed by the appropriate HRP conjugated secondary antibodies also at a dilution of 1:1000. Bands were visualised by the SuperSignal chemiluminescent detection system, and densitometry of band intensity was determined using Adobe Photoshop CS3, v10.0, and normalised to the loading control.
# MCF7 cells = test: Two-stage sequential treatment of MCF7 cells, cell number and viability (trypan blue); format: cell-based; conditions: LDN (10 nM) or 6BN (10 μM) for 48 h, then cannabinoid (cannabidiol 10 μM) for 48 h, compared with other sequences
# Experimental: Each treatment lasted four days and consisted of two days of treatment with the first agent (UN=control, LDN=Low Dose Naltrexone at 10 nM CBD=Cannabidiol, 6BN=6-β-naltrexol) before the second-named agent was introduced for a further two days.
# Another illustrative and non-limiting experiment was carried out on cultures of MCF7 cells. In brief, the cultures were treated with LDN or 6BN for two days, after which a cannabinoid was administered for a further two days. Cell number and viability were assessed on day four. The sequence of the administration for each therapeutic agent was reversed and the experiment repeated.
# In full, MCF7 cells were seeded into 6-well plates at a density of 1.5×10^4/well and left to adhere. Cells were then cultured with naltrexone (10 nM), 6-β-naltrexol (10 μM) or cannabidiol (10 μM). Drug-containing media was removed after 48 h, and cells were rinsed gently with drug-free medium. Fresh culture medium was then added to the cells supplemented with either naltrexone (10 nM), 6-β-naltrexol (10 μM) or cannabidiol (10 μM), as indicated in the graph. Cell number and viability were assessed a further 48 h later, with percentages of live and dead cells being discriminated by trypan blue dye exclusion. Data were then consolidated to compare the effect of sequence on overall effect.
structure (smiles),measurement,setting,value
"Oc1ccc2c3c1OC1C(O)CC[C@@]4(O)[C@@H](C2)N(CC2CC2)CC[C@]314 (some centres unmarked) [6BN, N-cyclopropylmethyl-7,8-dihydro-14-hydroxynorisomorphine]",rise in CB2 compared among the three treatments,CB2; 10 μM 6BN compared with 1 μM 6BN and 10 nM LDN,highest
same,levels of CB2 relative to controls,CB2,significant increase
same,"inhibition of cancer cell proliferation, effect of schedule",MCF7 cells,most effective; also recorded: greater effect
"O=C1CC[C@@]2(O)[C@H]3Cc4ccc(O)c5c4[C@@]2(CCN3CC2CC2)[C@H]1O5 [LDN, 17-cyclopropylmethyl-4.5α-epoxy-3,14-dihydroxymorphinan-6-one]",levels of CB2 relative to controls,CB2,significant increase; also recorded: increased significantly
same,"inhibition of cancer cell proliferation, effect of schedule",MCF7 cells,most effective; also recorded: more effectively; also recorded: greater effect

# — patent US12324805B2, “Cancer treatment” (LDN Pharma Limited, priority 2017, dated 2025)
